Values quoted from earlier work, collected in patent US9526701B2, “Sustained drug release and improved product stability using non-covalent particle coating methods” (priority 2011, dated 2016).

Conditions: for half life in the blood: following administration; for bioavailability: oral administration

| SMILES | half life in the blood | bioavailability |
| --- | --- | --- |
| N[C@@H](Cc1cc(I)c(Oc2cc(I)c(O)c(I)c2)c(I)c1)C(=O)O [Example T4, 3,5,3′,5′-tetraiodo-L-thyronine] | greater than 7 days | 45-65% |
| N[C@@H](Cc1cc(I)c(Oc2ccc(O)c(I)c2)c(I)c1)C(=O)O [Example T3, 3,5,3′-triiodo-L-thyronine] | 20 to 30 h | greater than 95% |
